{"source": "patent US6386145B1", "about": "“Process for curing diseases in cultured fish” (B. L. Mitchell, Inc., priority 2000, dated 2002)", "test_system": "catfish diagnosed as having PGD (proliferative gill disease)", "assay": "treatment of rearing pond containing catfish diseased with PGD", "assay_type": "in vivo", "procedure": "In order to effect these concentrations in the tank or pond where the diseased fish are contained the concentrated solution of Chloramine-T is prepared for using the correct amount of Chloramine-T for the volume of water which is contained in the tank or pond where the diseased fish reside. This concentrated solution is then spread evenly over the surface of the pond or tank via the use of a chemical boat. In order to aid mixing aeration equipment is run one hour before the application and 35 hours after the application.\n1. A pond of 17 acres, 4.5 feet deep holding approximately 2 million catfish contained approximately 76.5 acre feet of water. […] […] Upon examination the whole fish population was diagnosed as having PGD in various stages with some of the fish dying. 411.57 pounds of Chloramine-T was dissolved in 50 gallons of water contained in a tank on a chemical boat, as the boat moved over the pond the Chloramine-T was applied evenly over the surface of the pond.", "key": {"[1]": {"conditions": "Example 1, catfish 2 to 4 inches, 2 ppm, after 72 hours"}, "[2]": {"conditions": "Example 2, catfish 6 to 9 inches, 2 ppm, after 72 hours"}, "[3]": {"conditions": "Example 3, catfish 1 to 1.25 pounds, 2 ppm, after 72 hours"}, "[4]": {"conditions": "Example 4, catfish 8 to 11 inches, 2 ppm, after 72 hours"}, "[5]": {"conditions": "Example 5, catfish 8 to 11 inches, 1.5 ppm, after 72 hours"}}}
{"smiles": "Cc1ccc(S(=O)(=O)NCl)cc1.[Na]", "note": "[Chloramine-T, N-Sodium, N-chloro-para-toluenesulfonamide]", "values": [{"measurement": "death rate of the fish", "setting": "Example 1, catfish 2 to 4 inches, approx. 2 million, 2 ppm in pond, 24 hours after application", "result": "substantially decreased"}, {"measurement": "death rate of the fish", "setting": "Example 1, catfish 2 to 4 inches, 2 ppm, after 48 hours", "result": "further decreased"}, {"measurement": "PGD status upon examination of the fish population", "setting": "[1]", "result": "in remission"}, {"measurement": "death of fish", "setting": "[1]", "result": "essentially stopped"}, {"measurement": "PGD status upon examination of the fish population", "setting": "Example 1, catfish 2 to 4 inches, 2 ppm, after 96 hours", "result": "free of PGD"}, {"measurement": "death rate of the fish", "setting": "Example 2, catfish 6 to 9 inches, approx. 1 million, 2 ppm in pond, 24 hours after application", "result": "substantially decreased"}, {"measurement": "death rate of the fish", "setting": "Example 2, catfish 6 to 9 inches, 2 ppm, after 48 hours", "result": "further decreased"}, {"measurement": "PGD status upon examination of the fish population", "setting": "[2]", "result": "in remission"}, {"measurement": "death of fish", "setting": "[2]", "result": "essentially stopped"}, {"measurement": "PGD status upon examination of the fish population", "setting": "Example 2, catfish 6 to 9 inches, 2 ppm, after 96 hours", "result": "free of PGD"}, {"measurement": "death rate of the fish", "setting": "Example 3, catfish 1 to 1.25 pounds, approx. 125,000, 2 ppm in pond, 24 hours after application", "result": "substantially decreased"}, {"measurement": "death rate of the fish", "setting": "Example 3, catfish 1 to 1.25 pounds, 2 ppm, after 48 hours", "result": "further decreased"}, {"measurement": "PGD status upon examination of the fish population", "setting": "[3]", "result": "in remission"}, {"measurement": "death of fish", "setting": "[3]", "result": "essentially stopped"}, {"measurement": "PGD status upon examination of the fish population", "setting": "Example 3, catfish 1 to 1.25 pounds, 2 ppm, after 96 hours", "result": "free of PGD"}, {"measurement": "death rate of the fish", "setting": "Example 4, catfish 8 to 11 inches, approx. 700,000, 2 ppm in pond, 24 hours after application", "result": "substantially decreased"}, {"measurement": "death rate of the fish", "setting": "Example 4, catfish 8 to 11 inches, 2 ppm, after 48 hours", "result": "further decreased"}, {"measurement": "PGD status upon examination of the fish population", "setting": "[4]", "result": "in remission"}, {"measurement": "death of fish", "setting": "[4]", "result": "essentially stopped"}, {"measurement": "PGD status upon examination of the fish population", "setting": "Example 4, catfish 8 to 11 inches, 2 ppm, after 96 hours", "result": "free of PGD"}, {"measurement": "death rate of the fish", "setting": "Example 5, catfish 8 to 11 inches, approx. 700,000, 1.5 ppm in pond, 24 hours after application", "result": "no decrease"}, {"measurement": "death rate of the fish", "setting": "Example 5, catfish 8 to 11 inches, 1.5 ppm, after 48 hours", "result": "not decreased"}, {"measurement": "PGD status upon examination of the fish population", "setting": "[5]", "result": "continued unabated"}, {"measurement": "death of fish", "setting": "[5]", "result": "continued"}, {"measurement": "PGD status upon examination of the fish population", "setting": "Example 5, catfish 8 to 11 inches, 1.5 ppm, after 96 hours", "result": "continued to die and be afflicted with PGD"}, {"measurement": "survival of the diseased fish", "setting": "Example 6, catfish 8 to 11 inches, approx. 450,000, 387 pounds in 48 acre feet, printed 1.5 ppm, 24 hours after application", "result": "all of the fish were dead"}, {"measurement": "control of PGD in diseased catfish (summary of Examples 1 through 6)", "setting": "concentrations of less than 2 ppm", "result": "ineffective"}, {"measurement": "toxicity to diseased catfish (summary of Examples 1 through 6)", "setting": "concentrations of more than 3 ppm", "result": "kill the diseased catfish"}, {"measurement": "control of PGD in diseased catfish (summary of Examples 1 through 6)", "setting": "use in accordance with the process of the invention (2 to 3 ppm)", "result": "eliminates PGD"}]}
